From patent US20120071475A1, “UREA DERIVATIVES HAVING PI3K-INHIBITING ACTIVITY” (SHIONOGI & CO., LTD., priority 2009, published 2012)
In brackets after ≈: the same amount, converted by molar mass. Where two headings read alike, the source gives them in different places.

Assays:
PI3Kγ [1] = molecular target: T1, PI3Kγ (Homo sapiens, UniProt P48736); test: PI3Kγ inhibitory activity (Ki value); assay type: biochemical
Protocol: The PI3Kγ inhibitory activity (Ki value) of a compound was evaluated according to the following procedure:
5 μL of a compound solution containing 10% DMSO and […] of a compound was changed to 5 μL of a compound solution containing 10% DMSO and either 200, 64, 20, 6.4, 2, 0.64, or 0.20 μmol/L of the compound (optionally, this is diluted to a lower concentration). Using a method similar to the method for measuring PI3Kγ inhibitory activity, inhibition ratios of PI3Kγ were measured in the presence of the compound at 50, 16, 5, 1.6, 0.5, 0.16, and 0.05 μmol/L (optionally, a lower concentration). Then an IC50 value was calculated by a logistic approximation method or the linear regression method using two concentrations that cross 50% inhibition. Separately, the ATP concentration in the reaction solution (40 μmol/L ATP, 10 mmol/L MgCl2, 5 mmol/L DTT) at the time of the start of a reaction in the absence of the compound was changed to 80, 40, 20, 10, 5, 2.5, 1.25, or 0.625 μmol/L. Then, HTRF ratios were measured by a similar method. The value obtained by subtracting the HTRF ratio at each ATP concentration from the HTRF ratio in the absence of PI-3 kinase y was defined as the value obtained by multiplying reaction rate (v) at each ATP concentration with a constant. The Michaelis-Menten constant Km was then calculated by the Lineweaver-Burk plot method. The Ki value of a compound was calculated by the following formula wherein “μM” denotes “μmol/L.”
Ki value ═IC50 value/(1+test ATP concentration (μM)/Km (μM))

PI3Kβ = PI3Kβ (Homo sapiens, UniProt P42338); test: PI3Kβ inhibitory activity (Ki value); assay type: biochemical
PI3Kβ, sequence (P42338 whole entry, species assumed): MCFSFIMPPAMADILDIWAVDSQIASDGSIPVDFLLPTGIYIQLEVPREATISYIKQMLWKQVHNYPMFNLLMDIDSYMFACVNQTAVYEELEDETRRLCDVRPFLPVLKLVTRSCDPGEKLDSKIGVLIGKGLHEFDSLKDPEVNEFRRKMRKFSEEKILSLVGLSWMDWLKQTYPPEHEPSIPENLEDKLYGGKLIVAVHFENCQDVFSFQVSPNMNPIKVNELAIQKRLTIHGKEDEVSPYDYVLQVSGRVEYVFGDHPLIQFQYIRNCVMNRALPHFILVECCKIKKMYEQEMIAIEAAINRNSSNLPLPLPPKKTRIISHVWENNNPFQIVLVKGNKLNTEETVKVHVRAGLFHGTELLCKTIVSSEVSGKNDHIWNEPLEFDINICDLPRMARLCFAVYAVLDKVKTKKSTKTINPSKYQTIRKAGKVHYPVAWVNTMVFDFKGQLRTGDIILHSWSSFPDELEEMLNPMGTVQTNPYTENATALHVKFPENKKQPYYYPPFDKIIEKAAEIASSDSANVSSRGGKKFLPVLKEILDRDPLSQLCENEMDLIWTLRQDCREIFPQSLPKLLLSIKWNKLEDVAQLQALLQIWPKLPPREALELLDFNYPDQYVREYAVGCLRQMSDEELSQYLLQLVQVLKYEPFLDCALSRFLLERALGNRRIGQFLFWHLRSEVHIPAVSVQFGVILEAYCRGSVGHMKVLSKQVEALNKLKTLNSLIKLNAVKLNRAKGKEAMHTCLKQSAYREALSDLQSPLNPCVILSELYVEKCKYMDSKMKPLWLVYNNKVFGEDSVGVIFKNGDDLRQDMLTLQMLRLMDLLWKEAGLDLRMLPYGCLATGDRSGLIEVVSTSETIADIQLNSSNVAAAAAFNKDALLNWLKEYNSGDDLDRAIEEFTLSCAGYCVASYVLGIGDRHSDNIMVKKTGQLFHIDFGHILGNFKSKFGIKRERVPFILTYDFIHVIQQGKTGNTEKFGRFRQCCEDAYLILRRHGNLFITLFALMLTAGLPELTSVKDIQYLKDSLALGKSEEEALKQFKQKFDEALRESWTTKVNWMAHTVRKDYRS
PI3Kβ, sequence (P27986 whole entry partner, species assumed): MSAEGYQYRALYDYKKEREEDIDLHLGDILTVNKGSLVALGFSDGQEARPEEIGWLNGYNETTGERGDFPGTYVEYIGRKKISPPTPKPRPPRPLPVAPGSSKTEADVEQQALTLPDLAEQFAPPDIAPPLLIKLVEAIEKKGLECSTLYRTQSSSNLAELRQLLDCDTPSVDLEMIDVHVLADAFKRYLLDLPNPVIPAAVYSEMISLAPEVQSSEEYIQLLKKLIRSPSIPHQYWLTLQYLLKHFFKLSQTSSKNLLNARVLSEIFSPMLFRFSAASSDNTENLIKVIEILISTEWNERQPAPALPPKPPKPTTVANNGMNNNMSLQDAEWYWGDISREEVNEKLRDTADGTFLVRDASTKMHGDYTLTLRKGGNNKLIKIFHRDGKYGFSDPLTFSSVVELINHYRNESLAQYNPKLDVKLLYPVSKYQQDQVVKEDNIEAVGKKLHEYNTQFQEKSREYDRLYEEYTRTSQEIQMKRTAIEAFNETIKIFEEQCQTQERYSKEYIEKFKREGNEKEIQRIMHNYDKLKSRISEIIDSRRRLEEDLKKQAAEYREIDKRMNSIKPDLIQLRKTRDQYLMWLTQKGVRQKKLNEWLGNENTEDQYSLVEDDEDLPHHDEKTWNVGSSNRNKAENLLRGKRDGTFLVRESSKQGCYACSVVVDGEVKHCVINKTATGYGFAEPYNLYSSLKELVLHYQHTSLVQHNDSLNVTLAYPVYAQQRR
Protocol: (§1) According to Example 2 above, after 80 μg/mL PI-3 kinase γ of the enzyme solution (80 μg/mL PI-3 kinase γ, 10 mmol/L MgCl2, 5 mmol/L DTT) was changed to 60 μg/mL PI-3 kinase β, a method similar to the method for measuring PI3Kγ inhibitory activity was used to calculate an inhibition ratio, which was defined as the PI3Kβ inhibitory activity.
According to Example 4 above, a Km value for PI3Kβ was determined to calculate a Ki value.

PI3Kα = PI3Kα (Homo sapiens, UniProt P42336); test: PI3Kα inhibitory activity (Ki value); assay type: biochemical
PI3Kα, sequence (P42336 whole entry, species assumed): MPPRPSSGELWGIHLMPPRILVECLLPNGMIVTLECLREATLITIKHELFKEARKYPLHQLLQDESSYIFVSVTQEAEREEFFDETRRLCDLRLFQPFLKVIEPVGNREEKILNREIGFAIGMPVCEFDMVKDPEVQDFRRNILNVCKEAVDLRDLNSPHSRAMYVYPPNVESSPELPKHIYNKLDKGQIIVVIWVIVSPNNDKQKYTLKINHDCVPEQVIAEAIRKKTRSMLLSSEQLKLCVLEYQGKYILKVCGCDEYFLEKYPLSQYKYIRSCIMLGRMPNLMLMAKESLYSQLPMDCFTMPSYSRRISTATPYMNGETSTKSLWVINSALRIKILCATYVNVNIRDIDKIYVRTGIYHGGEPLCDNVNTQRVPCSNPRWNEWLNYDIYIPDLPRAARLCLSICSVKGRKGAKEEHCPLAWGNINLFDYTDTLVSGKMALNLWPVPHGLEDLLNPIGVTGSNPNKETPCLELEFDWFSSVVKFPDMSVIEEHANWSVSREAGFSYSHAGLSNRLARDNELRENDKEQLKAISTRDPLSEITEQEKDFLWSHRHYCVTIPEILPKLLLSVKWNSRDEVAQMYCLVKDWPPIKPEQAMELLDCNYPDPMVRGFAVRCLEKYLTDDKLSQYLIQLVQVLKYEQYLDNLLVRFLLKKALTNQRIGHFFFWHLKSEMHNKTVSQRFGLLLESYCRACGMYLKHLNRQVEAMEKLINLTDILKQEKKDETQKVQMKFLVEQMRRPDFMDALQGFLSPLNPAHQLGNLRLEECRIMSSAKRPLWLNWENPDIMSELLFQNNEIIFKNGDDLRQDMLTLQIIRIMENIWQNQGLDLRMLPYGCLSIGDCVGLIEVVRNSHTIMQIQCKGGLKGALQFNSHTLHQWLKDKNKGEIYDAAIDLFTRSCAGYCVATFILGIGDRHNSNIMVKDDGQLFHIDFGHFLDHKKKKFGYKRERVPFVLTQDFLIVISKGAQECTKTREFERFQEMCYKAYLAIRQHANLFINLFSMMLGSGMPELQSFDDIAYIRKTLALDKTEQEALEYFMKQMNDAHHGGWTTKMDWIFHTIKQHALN
PI3Kα, sequence (P27986 whole entry partner, species assumed): as the sequence (P27986 whole entry partner, species assumed) above
Protocol: as §1, with “0.8” for “60”, “α, an inhibition ratio was calculated by” for “β,”, “activity, and then” for “activity was used to calculate an inhibition ratio, which was”, “PI3Kα” for “PI3Kβ”
The α inhibitory activity (Ki value) of a compound was evaluated according to the following procedure.
According to Example 4 above, a Km value for PI3Kα was determined to calculate a Ki value.

PI3Kδ = PI3Kδ (Homo sapiens, UniProt O00329); test: PI3Kδ inhibitory activity (Ki value); assay type: biochemical
PI3Kδ, sequence (O00329 whole entry, species assumed): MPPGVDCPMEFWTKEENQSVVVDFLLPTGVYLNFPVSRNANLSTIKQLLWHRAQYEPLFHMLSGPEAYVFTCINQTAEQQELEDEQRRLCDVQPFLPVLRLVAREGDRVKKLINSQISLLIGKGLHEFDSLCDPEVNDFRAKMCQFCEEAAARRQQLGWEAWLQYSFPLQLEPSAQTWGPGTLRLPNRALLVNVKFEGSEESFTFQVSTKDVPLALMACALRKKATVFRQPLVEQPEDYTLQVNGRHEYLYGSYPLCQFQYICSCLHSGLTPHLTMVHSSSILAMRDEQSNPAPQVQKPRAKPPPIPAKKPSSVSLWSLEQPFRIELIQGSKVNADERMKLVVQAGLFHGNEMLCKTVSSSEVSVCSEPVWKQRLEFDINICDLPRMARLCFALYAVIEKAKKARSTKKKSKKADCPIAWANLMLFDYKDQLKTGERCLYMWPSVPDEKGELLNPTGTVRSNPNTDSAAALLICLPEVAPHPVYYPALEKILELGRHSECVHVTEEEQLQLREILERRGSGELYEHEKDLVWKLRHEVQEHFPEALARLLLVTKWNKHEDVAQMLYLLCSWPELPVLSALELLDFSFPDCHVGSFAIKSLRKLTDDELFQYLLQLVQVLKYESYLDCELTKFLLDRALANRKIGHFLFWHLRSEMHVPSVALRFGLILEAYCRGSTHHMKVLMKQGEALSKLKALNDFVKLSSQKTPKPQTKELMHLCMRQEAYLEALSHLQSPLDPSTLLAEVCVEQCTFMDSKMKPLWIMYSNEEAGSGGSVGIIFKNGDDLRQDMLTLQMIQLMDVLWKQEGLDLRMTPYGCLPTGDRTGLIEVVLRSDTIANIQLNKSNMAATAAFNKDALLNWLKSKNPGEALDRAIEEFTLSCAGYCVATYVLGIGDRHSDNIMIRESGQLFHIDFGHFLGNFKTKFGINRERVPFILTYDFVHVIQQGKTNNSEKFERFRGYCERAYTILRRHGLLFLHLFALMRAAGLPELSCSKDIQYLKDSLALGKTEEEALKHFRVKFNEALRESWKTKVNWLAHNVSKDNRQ
PI3Kδ, sequence (P27986 whole entry partner, species assumed): as the sequence (P27986 whole entry partner, species assumed) above
Protocol: as §1, with “158” for “60”, “δ,” for “β,”, “PI3Kδ” for “PI3Kβ”
According to Example 4 above, a Km value for PI3Kδ was determined to calculate a Ki value.

PI3Kγ [2] = molecular target: T1, PI3Kγ; test: PI3Kγ inhibitory activity (PI3-kinase HTRF assay, inhibition ratio); assay type: biochemical; conditions: 0.5 h, compound at 10 μmol/L; read-out: PI3Kg Inhibition Ratio % (10 μM)
How it was run: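 Compound at 10 μmol/L preincubated 10 min with PI3Kγ and PIP2 substrate, then reacted with ATP for 30 minutes at room temperature; the compound, substrate and ATP figures as printed (40 μmol/L each) are solution concentrations. HTRF 665/620 nm ratio read after 18 hours. Inhibition ratio calculated against no-compound (100%) and no-enzyme (0%) controls.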

[3] = Solubility test (artificial intestinal juice pH 6.8, 1% DMSO); assay type: physicochemical; conditions: artificial intestinal juice pH 6.8 with 1% DMSO, fassgf or other biorelevant, kinetic from dmso stock, 25° C.
Protocol: The solubility of a compound was determined under a condition in which 1% DMSO was added. 10 mmol/L compound solution was prepared using DMSO, and then 6 μL of the compound solution was added to 594 μL of artificial intestinal juice in pH 6.8 (to 250 mL of 0.2 mol/L potassium dihydrogen phosphate reagent solution was added 118 mL of 0.2 mol/L NaOH reagent solution and water to provide a final volume of 1000 mL). After standing at 25° C. for 16 hours, the mixed solution was filtered with suction. The filtrate was diluted twice with methanol/water (1/1), and then a concentration in the filtration was measured with HPLC or LC/MS/MS by the absolute calibration method.

[4] = Metabolic stability test (pooled human liver microsome); assay type: in vitro ADME; conditions: percentage of test compound remained after 30 minutes, pooled human liver microsome 0.5 mg protein/mL, 1 mmol/L NADPH, 37° C.; for hLMS_ox(at 0.5 μM) %: compound 0.5 μM
How it was run: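 Pooled human liver microsomes (0.5 mg protein/mL) incubated with compound and 1 mmol/L NADPH at 37° C. in pH 7.4 Tris buffer for 0 or 30 min. Parent quantified by LC/MS/MS after methanol/acetonitrile quench; value is % remaining at 30 min versus 0 min.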

CYP3A4 = molecular target: T2, CYP3A4 (Homo sapiens, UniProt P08684); test: CYP3A4 fluorescence MBI test; assay type: in vitro ADME; conditions: difference in IC50 with 0 or 30 minutes pre-reaction; CYP3A4 expressed in E. coli, substrate 7-BFC
T2 construct: host or cells: E. coli
How it was run: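 E. coli-expressed CYP3A4 debenzylating 5.6 μmol/L 7-BFC to fluorescent 7-HFC (Ex 420/Em 535 nm) in K-Pi pH 7.4 at 25° C, 15 min reaction. NADPH pre-incubation of 0 or 30 min, with 10-fold dilution before reaction. IC50 from 0.625–20 μmol/L (6 points); (+) for an IC50 shift ≥5 μmol/L, (−) for ≤3 μmol/L.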

hERG channel (IKr) = molecular target: T3, hERG channel (IKr) (Homo sapiens, UniProt Q12809); test: hERG test (whole-cell patch-clamp, IKr in HEK293 cells); assay type: cell-based; conditions: human, HEK293 cells expressing hERG channel, pH 7.4, inhibition of maximum tail current (IKr), compound 1 μM
T3 construct: expressed in transfected cells; host or cells: HEK293
How it was run: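 hERG-expressing HEK293 cells, automated whole-cell patch clamp: hold −80 mV, +50 mV for 2 s, then −50 mV for 2 s to record IKr tail current. Compound in extracellular solution (pH 7.4) for 10 min at room temperature; inhibition of maximum tail current calculated versus pre-application and compared with 0.1% DMSO vehicle.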

AKT phosphorylation = AKT phosphorylation inhibitory activity in MCP-1 stimulated THP-1 cells (sandwich ELISA); assay type: cell-based, Human; conditions: Homo sapiens, compound at 1 μmol/L, MCP-1 stimulation, read-out: AKT phosphorylation inhibition ratio
How it was run: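 THP-1 cells (6.7×10^6/mL in HBSS) were preincubated with compound at 1 μmol/L for 5 min at 37 °C, then stimulated for 60 s with HBSS containing 1.2 μg/mL MCP-1 and lysed. Phospho-Akt Ser473/AKT1 sandwich ELISA was read at A450. % inhibition: no compound = 100% activity, no MCP-1 = 0%.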

[5] = class symbols, read-out: PI3K γ Ki
[6] = class symbols, read-out: PI3K β Ki
[7] = class symbols, read-out: PI3K α Ki
[8] = class symbols, read-out: PI3K δ Ki

T1 sequence (P48736 whole entry, species assumed): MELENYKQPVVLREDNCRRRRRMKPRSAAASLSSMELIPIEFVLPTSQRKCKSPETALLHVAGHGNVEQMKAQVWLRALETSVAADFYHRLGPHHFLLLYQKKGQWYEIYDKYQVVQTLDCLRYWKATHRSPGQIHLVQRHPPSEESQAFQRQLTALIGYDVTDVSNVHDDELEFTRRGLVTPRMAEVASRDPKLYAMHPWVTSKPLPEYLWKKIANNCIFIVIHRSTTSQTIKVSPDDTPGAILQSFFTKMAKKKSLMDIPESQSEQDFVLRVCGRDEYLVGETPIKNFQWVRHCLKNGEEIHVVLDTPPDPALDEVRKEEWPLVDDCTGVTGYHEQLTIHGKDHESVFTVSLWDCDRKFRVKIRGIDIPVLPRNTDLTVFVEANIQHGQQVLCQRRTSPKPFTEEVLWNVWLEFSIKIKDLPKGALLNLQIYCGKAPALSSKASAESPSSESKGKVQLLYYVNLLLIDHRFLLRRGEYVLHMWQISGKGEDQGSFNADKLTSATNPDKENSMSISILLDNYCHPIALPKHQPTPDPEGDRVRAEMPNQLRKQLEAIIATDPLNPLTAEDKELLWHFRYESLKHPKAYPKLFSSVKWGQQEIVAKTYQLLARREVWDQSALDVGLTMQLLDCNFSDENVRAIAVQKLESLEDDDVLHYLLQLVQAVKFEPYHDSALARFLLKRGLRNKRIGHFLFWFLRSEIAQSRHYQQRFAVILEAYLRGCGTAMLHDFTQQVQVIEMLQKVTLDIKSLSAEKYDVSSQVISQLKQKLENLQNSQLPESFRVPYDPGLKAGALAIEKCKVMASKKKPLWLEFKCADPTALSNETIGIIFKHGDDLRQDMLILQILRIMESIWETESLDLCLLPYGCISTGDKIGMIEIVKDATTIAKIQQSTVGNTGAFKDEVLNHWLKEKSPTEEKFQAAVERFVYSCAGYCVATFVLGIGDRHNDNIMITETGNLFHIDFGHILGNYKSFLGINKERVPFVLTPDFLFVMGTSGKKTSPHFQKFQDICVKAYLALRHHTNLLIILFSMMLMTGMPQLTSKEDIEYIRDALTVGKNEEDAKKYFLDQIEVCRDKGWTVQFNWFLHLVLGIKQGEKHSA

SMILES	Ki (PI3Kγ [1]; [5]) [nM]	Ki (PI3Kγ [1]; read-out: PI3Kγ Ki value) [nM]	Ki (PI3Kβ; [6]) [nM]	Ki (PI3Kα; [7]) [nM]	Ki (PI3Kδ; [8]) [nM]	inhibition at 10 µM (PI3Kγ [2]) [%]	solubility at 16 h [3] [µM]	other results
CC(C)CCOc1ccccc1NC(=O)Nc1cn2nc(-c3cccc(S(C)(=O)=O)c3)ccc2n1 [Compound I-126]	≤ 300	61	≤ 3000	> 3000	≤ 3000			
CC(=O)c1cccc(-c2cc(NC(=O)Nc3ccccc3C(=O)NC(C)C)nn2C)c1 [Compound I-227]						87	36.8 (≈ 15.4 µg/mL)	
COc1cc(N2CCc3nc(NC(=O)NN4CCC[C@H]4C(=O)NC(C)C)sc3C2)nc(OC)n1 [Compound I-179]							> 50	
CC(C)NC(=O)c1ccccc1NC(=O)Nc1nc2c(s1)CN(c1cc[nH]c(=O)c1)CC2 [Compound I-178]						≥ 95	10 (≈ 4.53 µg/mL)	hLMS_ox(at 0.5 μM) % [4]: 97.9%
COc1cc(N2CCc3nc(NC(=O)Nc4ccccc4C(=O)NC(C)CO)sc3C2)cnc1OC (stereo not drawn) [Compound I-104]							39.6 (≈ 20.3 µg/mL)	hLMS_ox(at 0.5 μM) % [4]: 103%
CC(C)CCOc1ccccc1NC(=O)Nc1cc2n(n1)CCN2c1ccc2c(c1)CCN(C)C2=O [Compound I-112]	≤ 3000	1100	> 3000	> 3000	≤ 3000			Ki (PI3Kβ; read-out: PI3Kβ Ki value): > 11000 nM; Ki (PI3Kα; read-out: PI3Kα Ki value): 7500 nM; Ki (PI3Kδ; read-out: PI3Kδ Ki value): 2100 nM
COc1cc(N2CCc3nc(NC(=O)Nc4ccsc4C(=O)O)sc3C2)nc(OC)n1 [Compound I-4]						72	12.3 (≈ 5.69 µg/mL)	hLMS_ox(at 2 μM) % ([4]; compound 2 μM): 103%
Cc1cc(N2Cc3sc(NC(=O)Nc4ccccc4C(=O)NC(C)C)nc3C(C)C2)nc(Cl)n1 (stereo not drawn) [Compound I-229]	≤ 30	9.4	> 3000	> 3000	> 3000	≥ 95		
COc1cc(N2CCc3nc(NC(=O)NC4=C(C(=O)NC(C)(C)C)CCC4)sc3C2)nc(OC)n1 [Compound I-28]	≤ 300	47	≤ 3000	> 3000	≤ 3000	≥ 95		
COc1cc(N2CCc3nc(NC(=O)Nc4ccccc4OCCN(C)C)sc3C2)nc(OC)n1 [Compound I-76]							26.3 (≈ 13.1 µg/mL)	
COc1cncc(-c2ccc3nc(NC(=O)Nc4ccccc4OCCC(C)C)sc3n2)c1 [Compound I-225]	≤ 30	15	≤ 300	> 3000	> 3000	≥ 95		MBI (CYP3A4): (−) (When 3 μmol/L or less, the compound is shown as (−))
COc1cncc(-c2ccc3nc(NC(=O)Nc4ccccc4OCCC(C)C)nn3c2)c1 [Compound I-216]	≤ 300	230	≤ 3000	> 3000	> 3000	≥ 95		
COc1cc(N2CCc3nc(NC(=O)Nc4ccccc4C(=O)N(C)C(C)C)sc3C2)nc(OC)n1 [Compound I-13]						≥ 95	15.4 (≈ 7.88 µg/mL)	
CC(C)NC(=O)c1ccccc1NC(=O)Nc1cn2nc(-c3cccc(S(C)(=O)=O)c3)ccc2n1 [Compound I-125]	≤ 30	13	≤ 300	≤ 3000	≤ 300			inhibition at 10 min, 1 µM (hERG channel (IKr)): 1.3%; hLMS_ox(at 0.5 μM) % [4]: 103%
COc1cc(N2CCc3nc(NC(=O)Nc4ccccc4C4=NC(C)(C)CO4)sc3C2)nc(OC)n1 [Compound I-14]	≤ 300	54	> 3000	> 3000	> 3000	94		MBI (CYP3A4): (−) (When 3 μmol/L or less, the compound is shown as (−))
COc1cc(-c2ccc3nc(NC(=O)Nc4ccccc4OCCC(C)C)sc3c2)nc(OC)n1 [Compound I-213]	≤ 300	58	> 3000	> 3000	> 3000			
COc1cc(C2(F)CCc3nc(NC(=O)Nc4ccccc4C(=O)NC(C)C)sc3C2)nc(OC)n1 (stereo not drawn) [Compound I-83]	≤ 300	110	> 3000	> 3000	> 3000	≥ 95		inhibition at 10 min, 1 µM (hERG channel (IKr)): 3.3%; hLMS_ox(at 0.5 μM) % [4]: 89.1%; Ki (PI3Kβ; read-out: PI3Kβ Ki value): > 12000 nM; Ki (PI3Kα; read-out: PI3Kα Ki value): > 13000 nM; Ki (PI3Kδ; read-out: PI3Kδ Ki value): > 12000 nM
COc1cccc(-c2ccc3nc(NC(=O)Nc4ccccc4C(=O)NC(C)C)cn3n2)c1 [Compound I-123]	≤ 30	25	≤ 3000	> 3000	≤ 300			
CC(C)CCc1ccccc1NC(=O)Nc1cc2n(n1)CCN2c1ccc2c(c1)CCN(C)C2=O [Compound I-113]	≤ 3000	2300	> 3000	> 3000	≤ 3000			
COc1nc(Cl)cc(N2CCc3nc(NC(=O)Nc4ccccc4C(=O)NC4CCCC4O)sc3C2)n1 (stereo not drawn) [Compound I-174]	≤ 30	3.6	≤ 3000	> 3000	≤ 3000	≥ 95		inhibition at 1 µM (AKT phosphorylation): 81%
